{"source": "patent US7605119B2", "about": "“Memory enhancing protein method” (The Research Foundation of State University of New York, priority 2000, dated 2009)", "key": {"[1]": {"system": "LTP maintenance", "assay": "Reversal of LTP maintenance", "type": "cell-based", "conditions": "1 μM"}, "[2]": {"biological_target": "PKC gamma (Homo sapiens, UniProt P05129)", "assay": "Inhibition of PKC gamma (IC50)", "type": "biochemical"}, "[3]": {"biological_target": "T1, PKMζ (Homo sapiens, UniProt Q05513)", "T1 construct": "made in house; host or cells: Spodoptera frugiperda Sf9 cells, baculovirus", "T1 sequence (Q05513 1-409 isoform Q05513-2)": "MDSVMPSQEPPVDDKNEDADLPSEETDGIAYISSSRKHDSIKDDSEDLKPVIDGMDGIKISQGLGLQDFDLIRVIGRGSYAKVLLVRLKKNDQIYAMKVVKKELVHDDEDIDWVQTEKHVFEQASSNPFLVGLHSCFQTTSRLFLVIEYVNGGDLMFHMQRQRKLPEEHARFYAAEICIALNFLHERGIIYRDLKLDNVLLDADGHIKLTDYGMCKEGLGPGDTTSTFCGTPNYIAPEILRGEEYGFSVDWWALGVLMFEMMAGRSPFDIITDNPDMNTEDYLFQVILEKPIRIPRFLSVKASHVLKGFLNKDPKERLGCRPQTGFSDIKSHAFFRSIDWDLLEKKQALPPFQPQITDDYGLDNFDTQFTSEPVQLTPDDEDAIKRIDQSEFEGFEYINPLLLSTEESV", "assay": "Inhibition of PKMζ (IC50)", "type": "biochemical"}, "[4]": {"system": "AMPA/kainate EPSCs in CA1 pyramidal cells", "assay": "Intracellular perfusion of PKMζ into CA1 pyramidal cells, whole-cell recording of evoked EPSCs", "type": "cell-based, Sprague-Dawley rats", "procedure": "PKMζ, purified from a baculovirus/Sf9 expression system to near homogeneity, was perfused into a CA1 pyramidal cell through a whole cell recording pipette (FIGS. 1A-1B). […] In order to isolate AMPA/kainate responses, the cell, recorded at the soma, was voltage-clamped at the IPSC reversal potential (˜−70) and Cs-gluconate-based electrode solution was used (to block GABAB effects). […] Over 5-10 min, there was ˜60% increase in AMPA/kainate EPSCs, which then stabilized. In contrast, inactivated PKMζ had no effect.\nHippocampal slices were prepared from Sprague-Dawley rats as described in Example 2. Patch electrodes were pulled (two-stage) from […] O.D. borosilicate glass (World Precision Instruments, Sarasota, Fla.) on a Narishige PP-83 vertical puller. Recording pipettes had tip resistances of 2-5 MΩ and contain (in mM): Cs-gluconate or K-gluconate 130-; MgCl2, 2; CaCl2, 2; EGTA, 10; HEPES, 10; Na-ATP, 2; pH adjusted to 7.25 with either CsOH or KOH. […] Cesium was used to block potassium currents, including slow GABAB IPSCs. Electrode solutions included QX-314 (10 mM) to block […] currents to prevent cell spike discharges at depolarized holding potentials. Whole-cell recordings were obtained from CA1 pyramidal cells using blind patch techniques. The recording pipette was slowly advanced through the tissue, with brief voltage steps (−10 mV, 10 ms) applied to monitor electrode resistance. Once a deflection in the electrode's current response was detected signifying contact with the membrane of the target cell soma, slight negative pressure was applied to form a cell-electrode seal of >1 GΩ.\nMembrane breakthrough was accomplished with either additional suction or current pulses. […] Signals were recorded under voltage-clamp with an Axoclamp 2A amplifier (Axon Instruments, Foster City, Calif.). Resting input resistance was measured from the current response to a −10 mV voltage step from holding potential. […]\nThe effects of PKMζ cell injection on excitatory synaptic currents were assessed by including the kinase in the whole-cell pipette and measuring EPSC amplitude over time. […]"}, "[5]": {"biological_target": "T1, PKMζ", "assay": "Inhibition of phosphorylation of exogenous substrates by various protein kinases (specificity of chelerythrine)", "type": "biochemical", "conditions": "versus PKC alpha, PKC epsilon (MBP substrate), CaM-kinase II (Syntide)", "source_text": "PKCA is PKC alpha phosphorylation of myelin basic protein (MBP). PKCE is PKC epsilon phosphorylation of MBP. PKM is PKMζ phosphorylation of MBP. CKII is Ca^2+-calmodulin-dependent protein kinase II phosphorylation of Syntide® (Calbiochem, San Diego, Calif.) peptide substrate."}}, "note": "Residues, ends and D or L forms follow the SMILES beside them.", "data": [{"molecule": "CCCCCCCCCCCCCC(=O)N[C@@H](CO)C(=O)N[C@H](C(=O)N[C@@H](Cc1ccc(O)cc1)C(=O)N[C@@H](CCCNC(=N)N)C(=O)N[C@@H](CCCNC(=N)N)C(=O)NCC(=O)N[C@@H](C)C(=O)N[C@@H](CCCNC(=N)N)C(=O)N[C@@H](CCCNC(=N)N)C(=O)N[C@@H](Cc1c[nH]c2ccccc12)C(=O)N[C@@H](CCCNC(=N)N)C(=O)N[C@@H](CCCCN)C(=O)N[C@@H](CC(C)C)C(=O)O)[C@@H](C)CC", "note": "[MZIP, myr-Ser-Ile-Tyr-Arg-Arg-Gly-Ala-Arg-Arg-Trp-Arg-Lys-Leu-OH] (HELM PEPTIDE1{[CCCCCCCCCCCCCC(=O)[*:2]].S.I.Y.R.R.G.A.R.R.W.R.K.L}$$$$V2.0)", "values": [{"measurement": "effect on LTP maintenance", "setting": "[1]", "value": "reverses LTP maintenance"}, {"measurement": "IC50", "setting": "[2]", "value": 10, "unit": "µM"}, {"measurement": "IC50", "setting": "[3]", "value": "0.01 to 0.1", "unit": "µM"}]}, {"molecule": "COc1ccc2c(c[n+](C)c3c4cc5c(cc4ccc23)OCO5)c1OC", "note": "[chelerythrine]", "values": [{"measurement": "reversal of PKMζ-induced increases in synaptically evoked AMPA/kainate responses", "setting": "[4]; 3 nM PKM in pipette, chelerythrine 1 uM in bath", "value": "reversible"}, {"measurement": "selectivity as an inhibitor of PKM activity relative to other protein kinases", "setting": "[5]", "value": "greater than 10 fold"}]}, {"molecule": "PKMζ: independent catalytic domain of the PKCζ isoform, purified from a baculovirus/Sf9 expression system", "values": [{"measurement": "increase in AMPA/kainate EPSCs", "setting": "[4]; about 0.8 nM PKMζ in whole cell pipette, over 5-10 min, then stabilized, voltage-clamped ~-70", "value": "~60", "unit": "%"}, {"measurement": "potency in potentiation of AMPA/kainate currents relative to CaM-kinase II", "setting": "[4]; compared with reported concentration of autoactive thiophosphorylated CaM-kinase II", "value": "200- to 1000 fold"}]}]}
